For orientation: inhibition means the percentage by which the read-out fell short of the control. High values mean a response far below the control, low ones a response near the control. The IC50 is the midpoint of a concentration-inhibition curve.

The first assay concerns the target T1, uterine OT receptors (Rattus norvegicus, UniProt P70536).
T1 construct: from tissue; host or cells: uterus of DES-treated rats, crude membrane preparation
T1 sequence (P70536 1-388): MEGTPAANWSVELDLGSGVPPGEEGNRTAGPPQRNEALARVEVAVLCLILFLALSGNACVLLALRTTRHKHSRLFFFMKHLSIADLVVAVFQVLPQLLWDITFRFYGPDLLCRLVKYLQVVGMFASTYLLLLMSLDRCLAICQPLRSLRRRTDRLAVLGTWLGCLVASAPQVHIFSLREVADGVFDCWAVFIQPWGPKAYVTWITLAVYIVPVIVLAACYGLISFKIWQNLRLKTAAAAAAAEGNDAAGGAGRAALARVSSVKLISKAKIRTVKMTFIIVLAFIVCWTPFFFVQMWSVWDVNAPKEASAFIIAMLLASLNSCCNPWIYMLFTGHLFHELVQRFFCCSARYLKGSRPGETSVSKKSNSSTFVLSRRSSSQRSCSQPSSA
Nature of the assay: [3H]Oxytocin radioligand binding assay, crude uterine membrane preparation. On the set-up: species or system rats. As to conditions: at 1,000 nM compound; 1 nM [3H]OT, rat uterine membranes.
Experimental: Oxytocin (OT)([tyrosyl, 3,5-[^3H]OT; 30-60 Ci/mmol; New England Nuclear. Boston, MA) to uterine OT receptors was based on an assay*using a crude membrane preparation of uteri taken from diethylstilbestrol dipropionate (DES)-treated (0.3 mg/kg, ip; 18-24) rats. Competetion studies were conducted at equilibrium (60 minutes; 22 °C) using 1 nM[^3H]OT in the following assay buffer: 50 mM Tris-HCI, 5 mM MgCl2, and 0.1% BSA, pH 7.4. Nonspecific binding (10% of the total binding) was determined using 1µM unlabeled OT and the binding reaction was terminated by filtration through glass fiber filters using a cell harvester (model 7019, Skatron, Inc., Sterling, VA).
Regarding `Cc1ccccc1N1CCN(S(=O)(=O)CC23CCC(C=C2C(=O)NCCc2c[nH]cn2)C3(C)C)CC1` (stereo not drawn) [Example 22, 1-((7,7-DIMETHYL-2-(4-IMIDAZOLYL)ETHYLAMINOCARBONYL-BICYCLO(2.2.1 )HEPT-2-EN-1-YL)-METHANESULFONYL)-4-(2-METHYLPHENYL)PIPERAZINE], 1 µM produced 78% inhibition.

In turn, `Cc1ccccc1N1CCN(S(=O)(=O)CC23CCC(CC2NC(=O)OCc2ccccc2)C3(C)C)CC1` (stereo not drawn) [Example 39] displayed an inhibition at 1 µM of 54%. Same read-out and setting: the figure for `Cc1ccccc1N1CCN(S(=O)(=O)CC23CCC(CC2N(C)C(=O)OCc2ccccc2)C3(C)C)CC1` (stereo not drawn) [Example 40] is 35%.

The same assay, now with this note: competition with 1 nM [3H]OT, 60 minutes, 22 °C, membranes of uteri from DES-treated rats.
In turn, `CCOC(=O)CCCN1CCCC1C(=O)NCC(C)C1(O)CC2CCC1(CS(=O)(=O)N1CCN(c3ccccc3C)CC1)C2(C)C` [Example 5, 1-((7,7-DIMETHYL-2-EXO-HYDROXY-2-ENDO-2-(1-(L-N-(ETHOXYCARBONYLPROPYL)PROLYL)AMINO)-PROPYL-BICYCLO-(2.2.1)HEPTAN-1-YL)METHANESULFONYL)-4-(2-METHYLPHENYL) PIPERAZINE] had an IC50 of 100 nM. The same measure, in the same setting: the figure for `Cc1ccccc1N1CCN(S(=O)(=O)CC23CCC(CC2(O)C(C)CNC(=O)C2CN4CCC2CC4)C3(C)C)CC1` (stereo not drawn) [Example 8] is 18 nM; for `Cc1ccccc1N1CCN(S(=O)(=O)CC23CCC(CC2NC(=O)Cc2c[nH]cn2)C3(C)C)CC1` (stereo not drawn) [Example 43] it is 110 nM.

Source of the values: EP0533240A2, “Substituted amine derivatives of piperazinylcamphorsulfonyl oxytocin antagonists” (MERCK & CO. INC., priority 1991, dated 1993).
